Results published in patent US8591877B2, “Cellulose-based nanoparticles for drug delivery” (Ontario Institute for Cancer Research, priority 2011, dated 2013).
Like-named read-outs stand apart in the source and are kept apart here.

Legend:
[1] = tested on: LL/2 flank tumors; assay: Subcutaneous flank tumor study, LL/2; assay type: in vivo
[2] = tested on: EMT-6 murine mammary carcinoma cells; assay: In vitro cytotoxicity (IC50 analysis), XTT assay; assay type: cell-based; conditions: Mus musculus, EMT-6 (mammary)
Procedure: (§1) EMT-6 murine mammary carcinoma cells and LL/2 murine Lewis lung cell carcinoma cells were cultured in DMEM media (Invitrogen) with high glucose, supplemented with 10% FBS (Invitrogen), penicillin (100 U/ml) and streptomycin (100 μg/ml) (Invitrogen). The mouse mammary carcinoma cell line EMT-6 was a generous gift from Dr. David Stojdl at the CHEO Research Institute and Dr. Douglas Mahoney at the University of Ottawa. For plating, cells were released from the culture flask with trypsin (Invitrogen), resuspended at a concentration of 1×10^5 cell/mL, and 100 uL of cell suspension was added to the wells of 96 well polystyrene plate. The cells were maintained for 24 hours in culture (37° C., 5% CO2, humidified) before addition of particles. DTX solutions were made up in DMSO and diluted with media to form a 100 nM stock solution with 0.1% DMSO content. These DTX samples were 2× serially diluted with 0.1% DMSO media. Cellax particles were assayed for DTX content, and 10× serially diluted with media. The cultures were maintained for three days, at which time cell viability was assayed by the XTT assay. Briefly, a 1 mg/mL solution of XTT reagent (Sigma) in water was prepared, and phenazine (Sigma) was added just before analysis ([…]). The culture plates were incubated for two hours at 37° C., and absorbance of each well at 480 nm was then read. Wells treated with media (or 0.1% DMSO media) represent 100% viable cultures, and wells containing no cells represent background signal. In a parallel experiment, the DTX or Cellax-containing media were added to the EMT-6 and LL/2 cultures in four steps, with addition of ¼ the dose every 12 hours for two days. The data was analyzed in GraphPad Prism, and the IC50 for each system was calculated.

[3] = tested on: LL/2 murine Lewis lung cell carcinoma cells; assay: In vitro cytotoxicity (IC50 analysis), XTT assay; assay type: cell-based; conditions: Mus musculus, LL/2 (lung)
Procedure: as §1

[4] = tested on: PAN02 cells (murine pancreatic cancer); assay: Intraperitoneal tumor model study, PAN02; assay type: in vivo, C57/BL6 mice; conditions: PAN02 i.p. model
From the text: (§2) Female BALB/c and C57/BL6 mice (aged 6 weeks, 18-20 g) were purchased from The Jackson Laboratory (Bar Harbor, Me.). All experimental protocols in this study were approved by the Animal Care Committee of the University Health Network (Toronto, Ontario, Canada) in accordance with the policies established in the Guide to the Care and Use of Experimental Animals prepared by the Canadian Council of Animal Care. For each study, the DTX was formulated in a Tween80/ethanol/saline (20:13:67) solution (4 mg DTX/mL), and sterile filtered. The Cellax particles were adjusted to 4, 7.5 or 15 mg DTX/mL in saline and sterile filtered.
PAN02 cells (murine pancreatic cancer) were cultured in RPMI 1640 supplemented with 10% FBS (Invitrogen), penicillin (100 U/ml) and streptomycin (100 μg/ml) (Invitrogen), and pyruvate (1 mM). Prior to inoculation, the cells were lifted from the culture plates with TrypLE Express (Invitrogen), and re-suspended in supplement free (no FBS, no antibiotics) RPMI media. The PAN02 cells (5×10^6 cells/mL, 0.5 mL) were injected into the intraperitoneal space of C57/BL6 mice. One day post-administration of the cells, the mice (n=3 per group) were treated with DTX (40 mg/kg), Cellax (40 mg DTX eqv/kg), or saline. Mice were sacrificed when >20% body weight loss was recorded, or at the first signs of behavioral or mobility dysfunction.

[5] = tested on: EMT-6 flank tumors; assay: Subcutaneous flank tumor study, EMT-6; assay type: in vivo
From the text: as §2
(§3) Tissues from mice (organs, bones, and tumors) were rinsed with saline and fixed in 10% formalin for 2 days, followed by storage in 70% ethanol. […] Prepared slides were analyzed on an Aperio Scanner at the Advanced Optical Microscopy Facility (AOMF) at the Princess Margaret Hospital (Toronto, ON). […] For TUNEL, Ki67, and CD31 stained samples, brown pixels were counted with the ImageScope Positive Pixel Count algorithm. For each tumor or organ analyzed, three tissue sections were each divided into three equal regions, generating n=9 data points. Image analysis output were positive pixel counts divided by the area analyzed.
EMT-6 cells were cultured as described previously. […] The tumor size was measured by a caliper, and body weight was monitored. […]

[6] = tested on: EMT-6 cells (i.v. inoculated); assay: Metastatic tumor study, i.v. EMT-6 cells; assay type: in vivo, BALB/c mice
From the text: as §2
Healthy BALB/c mice received an i.v. dose of EMT-6 cells (in supplement free DMEM media) via tail vein injection (50 uL, 2.5×10^5 cell/mL), and one day following received a dose of Cellax (40 mg DTX/kg), 40 mg/kg DTX, or saline (n=10/group). A second dose (20 mg/kg DTX) was administered on day 7 post-cell injection. Mice were sacrificed when >20% body weight loss was recorded, or at the first signs of behavioral or mobility dysfunction. The lungs, heart, liver, kidneys, spleen, femurs, and brain were harvested for histological analysis. A Kaplan Meier plot of survival probability was generated from the survival data.

[7] = Maximum tolerated dose (MTD) study in healthy mice; conditions: female, BALB/c, mouse, in vivo, iv; single i.v. dose, limit <5% body weight loss; read-out: MTD for docetaxel in mice
From the text: as §2
as §3, with “ethanol. Preparation of tissues into slides was performed at the Toronto General Hospital Pathology Research Program lab (Toronto, ON).” for “ethanol.”, “analyzed. […]” for “analyzed.”

[8] = doses of 210, 150, 300, and 233 mg/m^2 for PTX, NK105, Genexol, Opaxio respectively; cited from earlier work

SMILES: CC(=O)O[C@@]12CO[C@@H]1C[C@H](O)[C@@]1(C)C(=O)[C@H](O)C3=C(C)[C@@H](OC(=O)[C@H](O)[C@@H](NC(=O)OC(C)(C)C)c4ccccc4)C[C@@](O)([C@@H](OC(=O)c4ccccc4)[C@H]21)C3(C)C [DTX, Docetaxel]
- effect on tumor growth ([1]; LL/2 flank model, single dose 40 mg/kg DTX (eqv)): did not alter tumor growth characteristics
- tumor histology: necrosis (H&E) and TUNEL staining ([1]; LL/2 tumors): positive TUNEL staining was minimal
- IC50 ([2]; EMT6, 48 h, dose in four parts over two days, read-out: IC50 DTX (nM) Metronomic): 6 nM
- IC50 ([2]; EMT6, single (bolus) dose, XTT, Cellax as DTX content, read-out: IC50): 80 nM
- IC50 ([3]; 48 h, dose in four parts over two days, read-out: IC50 DTX (nM) Metronomic): 12 nM
- IC50 ([3]; single (bolus) dose, XTT, Cellax as DTX content, read-out: IC50): 767 nM
- survival ([4]; 40 mg/kg): survival was significantly extended
- weight loss or disease symptoms ([4]; 40 mg/kg (DTX eqv), n=3 per group): did not exhibit signs of weight loss or disease symptoms
- effect on tumor growth ([5]; EMT-6 flank model, single dose 40 mg/kg DTX (eqv), Cellax p<0.001 vs controls, p<0.05 vs DTX): minor (not significant) effect on tumour growth
- tumor histology: apoptosis (TUNEL), cell replication (Ki67), angiogenesis (CD31) ([5]; EMT-6 tumors, 40 mg/kg, compared to DTX treated tumors and controls): caused necrosis/apoptosis
- median survival time ([6]; 40 mg/kg day 1, 20 mg/kg day 7, n=10/group): 9 days
- onset of weight loss ([6]; metastatic EMT-6 model, 40 mg/kg): 6 days
- signs of disease stress: parelsis (leg movements), piloerection ([6]; metastatic EMT-6 model, mice affected per group of 10): 4/10
- MTD at 7 days [7]: 40 mg/kg

SMILES: CC(=O)O[C@H]1C(=O)[C@@]2(C)[C@H]([C@H](OC(=O)c3ccccc3)[C@]3(O)C[C@H](OC(=O)[C@H](O)[C@@H](NC(=O)c4ccccc4)c4ccccc4)C(C)=C1C3(C)C)[C@]1(OC(C)=O)CO[C@@H]1C[C@@H]2O [PTX, paclitaxel]
- half life [8]: 13.3 h

SMILES: Nc1ccn([C@@H]2O[C@H](CO)[C@@H](O)C2(F)F)c(=O)n1 [gemcitabine]
- benefit of treatment ([4]; 120 mg/kg): did not confer significantly increased benefits
